Measurements taken from US8119667B2, “Carbonates of fenicol antibiotics” (Schering-Plough Animal Health Corporation, priority 2005, dated 2012).
≈ marks a conversion by molar mass, not a printed value.

Legend:
Aqueous solubility = assay type: physicochemical; details: aqueous medium (not further specified)
Description: In some therapeutic applications florfenicol is administered in concentrated organic solution subcutaneously where it is known to form localized depot of the drug which results in the desired sustained release of the drug into the circulation. In such cases solubility of florfenicol in aqueous media represents one of important factors determining the rate of the sustained release. Another important factor affecting the sustained release of florfenicol from the subcutaneous depot site is the concentration of the dosing solution and the solvent composition of the formulation. Apart from the broader range of solvents which can be used for acceptable formulations of florfenicol benzylic carbonate prodrugs these prodrugs also allow a wide range of aqueous solubilities. Solubilities achieved with these prodrugs range from slightly to dramatically lower than that of florfenicol. Reduced aqueous solubilities of such prodrugs may be useful in controlling the rate of dissolution of the prodrug at the subcutaneous depot site and may allow achieving optimized sustained release of the parent drug.

[1] = In vitro enzymatic release of parent florfenicol from prodrugs in bovine serum; assay type: in vitro ADME; details: 37° C.
Source text: The ability of a prodrug derivative of a parent drug molecule to act efficiently in vivo as a source of the free parent drug determines the utility of a particular prodrug for treatment. The prodrug's ability to release the parent drug in vivo, in the presence of endogenous enzymes, can be determined by measuring the systemic levels of the parent drug after administration of the prodrug to the animal. This releasibility can also be assessed in vitro by measuring the release of the parent drug after mixing with animal whole blood, plasma or serum. Selected benzylic carbonate prodrugs of florfenicol were tested for release of florfenicol after in vitro mixing with bovine serum. […] A general trend of more lipophilic carbonates of florfenicol showing higher rates of degradation and release seems to be present among the compounds tested.
50 microliter of stock solution of carbonate pro-drug (10 mg/mL in DMSO) was added to 5 mL donor bovine serum and mixed. Aliquots of 400 microliter of the resulting solution were transferred into 1.5 mL plastic centrifuge tubes. Each plastic tube was placed into at 37° C. water bath for incubation. Samples were removed at 0, 1, 2, 4, 8, and 24 hours, and after addition of 400 microliter of acetonitrile to stop the reaction, rapidly stirred for 30 seconds. The precipitate was removed by centrifugation on an Eppendorf 5415G at 14000 rpm for 5 minutes. The clear supernatant solution was sampled for the HPLC analysis. The peak area of florfenicol was used to calculate the conversion of the prodrugs.

## CCOC(=O)O[C@H](c1ccc(S(C)(=O)=O)cc1)[C@@H](CF)NC(=O)C(Cl)Cl [Example 2, (1R,2S)-2-(2,2-dichloroacetamido)-3-fluoro-1-(4-(methylsulfonyl)phenyl)propyl ethyl carbonate]
Aqueous solubility
  solubility: 690 µg/mL (≈ 1600 µM)
[1]; 0 h
  Florfenicol released from prodrugs (% of total) after treatment with bovine serum: BQL^a
[1]; 1 h
  Florfenicol released from prodrugs (% of total) after treatment with bovine serum: BQL
[1]; 2 h
  Florfenicol released from prodrugs (% of total) after treatment with bovine serum: BQL
